Test results taken from article PMC12935787, “Clinical pharmacokinetics and pharmacometabolomics of Andrographis paniculata capsules: Bridging drug disposition and metabolic response to precision medicine” (Naunyn-Schmiedeberg's Archives of Pharmacology, 2025).
Read-outs that look alike come from different tables or passages of the source.

What was measured:
[1] = parameters: method as in Panossian et al. [2000]; settings: single dose of AP equivalent to 20 mg andrographolide; ref Panossian et al. [2000]; cited from earlier work
[2] = Clinical pharmacokinetics, plasma LC-MS/MS after single oral dose of AP capsules; format: in vivo, human (healthy volunteers); settings: human, plasma, oral, 2000 mg, 2000 mg AP capsules, read-out: Plasma concentration; for concentration at 0.5 h: 0.50 h; for concentration at 1.5 h: 1.50 h; for concentration at 2.5 h: 2.50 h; for concentration at 3.5 h: 3.50 h
Method: The protocol was published (Tee et al. [2022]).
Seven calibrators ranging from 1, 2, 5,10, 20, 50, and 100 ng mL^−1 were prepared. Frozen plasma was thawed, vortexed-mixes, and processed via protein precipitation: 50 µL plasma plus 100 µL 0.01% ammonia in methanol were vortexed (20 s), centrifuged (14800 rpm, 5 min) and […] supernatant was transferred to 2 mL vials with inserts. LC–MS/MS injection volume: 10 µL. The separation used a Phenomenex Gemini-NX C18 column (150 × 2.1 mm, 5 μm) with 0.01% ammonia (A) and acetonitrile/methanol (1:1, B) as mobile phases (0.30 mL min^-1). The gradient program: 40% B (0 min), linear increase to 95% B (3 min), hold to 5 min, sharp decrease to 10% B (5.01 min), hold to 7 min, return to 40% B (7.01 min), and re-equilibration to 10 min. Mass detection employed an LCMS-8060NX triple quadrupole with heated ESI in negative mode, monitoring specific MRM transitions: andrographolide (349.3 → 331.2/287.1), 14-deoxyandrographolide (331.2 → 108.0/301.1), and neoandrographolide (479.1 → 317.4/161.1).
Pharmacokinetic parameters were determined from plasma samples (5 subjects, 15 time points) analyzed via LC–MS/MS (Shimadzu 8060NX). […] Specific MRM transitions for andrographolide, 14-deoxyandrographolide, and neoandrographolide in plasma samples of subjects are illustrated in Figure S3. […] The dose-dependent concentration–time curves, pharmacokinetics profiles (Fig. 2a, b and c) and comprehensive individual PK data (Table S4) provide a foundation for developing personalized AP dosing regimens, supporting its precision medicine potential.

concentration at 0 h ([2]; S1): 0 ng/mL
concentration at 0.5 h ([2]; S1): 3.76 ng/mL
concentration at 1 h ([2]; S1): 2.41 ng/mL
concentration at 1.5 h ([2]; S1): 6.36 ng/mL
concentration at 2 h ([2]; S1): 5.31 ng/mL
concentration at 2.5 h ([2]; S1): 2.17 ng/mL
concentration at 3 h ([2]; S1): 3.86 ng/mL
concentration at 3.5 h ([2]; S1): 2.81 ng/mL
concentration at 4 h ([2]; S1): 0 ng/mL
concentration at 5 h ([2]; S1): 0 ng/mL
concentration at 6 h ([2]; S1): 0 ng/mL
concentration at 8 h ([2]; S1): 0 ng/mL
concentration at 10 h ([2]; S1): 0 ng/mL
concentration at 12 h ([2]; S1): 0 ng/mL
concentration at 24 h ([2]; S1): 0 ng/mL
concentration at 0 h ([2]; S2): 0 ng/mL
concentration at 0.5 h ([2]; S2): 0 ng/mL
concentration at 1 h ([2]; S2): 3.98 ng/mL
concentration at 1.5 h ([2]; S2): 5.56 ng/mL
concentration at 2 h ([2]; S2): 5.07 ng/mL
concentration at 2.5 h ([2]; S2): 3.13 ng/mL
concentration at 3 h ([2]; S2): 4.68 ng/mL
concentration at 3.5 h ([2]; S2): 0 ng/mL
concentration at 4 h ([2]; S2): 0 ng/mL
concentration at 5 h ([2]; S2): 0 ng/mL
concentration at 6 h ([2]; S2): 0 ng/mL
concentration at 8 h ([2]; S2): 0 ng/mL
concentration at 10 h ([2]; S2): 0 ng/mL
concentration at 12 h ([2]; S2): 0 ng/mL
concentration at 24 h ([2]; S2): 0 ng/mL
concentration at 0 h ([2]; S3): 0 ng/mL
concentration at 0.5 h ([2]; S3): 39.4 ng/mL
concentration at 1 h ([2]; S3): 13.8 ng/mL
concentration at 1.5 h ([2]; S3): 14.2 ng/mL
concentration at 2 h ([2]; S3): 4.19 ng/mL
concentration at 2.5 h ([2]; S3): 3.47 ng/mL
concentration at 3 h ([2]; S3): 0 ng/mL
concentration at 3.5 h ([2]; S3): 0 ng/mL
concentration at 4 h ([2]; S3): 0 ng/mL
concentration at 5 h ([2]; S3): 0 ng/mL
concentration at 6 h ([2]; S3): 0 ng/mL
concentration at 8 h ([2]; S3): 0 ng/mL
concentration at 10 h ([2]; S3): 0 ng/mL
concentration at 12 h ([2]; S3): 0 ng/mL
concentration at 24 h ([2]; S3): 0 ng/mL
concentration at 0 h ([2]; S4): 0 ng/mL
concentration at 0.5 h ([2]; S4): 0 ng/mL
concentration at 1 h ([2]; S4): 18.3 ng/mL
concentration at 1.5 h ([2]; S4): 22.1 ng/mL
concentration at 2 h ([2]; S4): 12.7 ng/mL
concentration at 2.5 h ([2]; S4): 5.06 ng/mL
concentration at 3 h ([2]; S4): 4.2 ng/mL
concentration at 3.5 h ([2]; S4): 2.09 ng/mL
concentration at 4 h ([2]; S4): 0 ng/mL
Structure (SMILES): C=C1CC[C@@H]2[C@](C)(CO)[C@H](O)CC[C@@]2(C)[C@@H]1C/C=C1/C(=O)OC[C@H]1O [andrographolide]
Tmax, previously reported [1]: 1.5 to 2 h
